pEC50: −log10 of the molar value. Residues, ends and D or L forms follow the SMILES beside them.
How the values were obtained:
Assay type in all cases: cell-based
human NMUR1 receptor = biological target: T1, human NMUR1 receptor (Homo sapiens, UniProt Q9HB89); assay: IP1 Gq HTRF assay, activation of human NMUR1 in buffer; settings: CHO-K1 cells expressing human NMUR1, stimulation buffer with 0.1% BSA; read-out: EC50 (hNMUR1) buffer
T1 construct: expressed in transfected cells; host or cells: CHO-K1
T1 sequence (Q9HB89 1-426): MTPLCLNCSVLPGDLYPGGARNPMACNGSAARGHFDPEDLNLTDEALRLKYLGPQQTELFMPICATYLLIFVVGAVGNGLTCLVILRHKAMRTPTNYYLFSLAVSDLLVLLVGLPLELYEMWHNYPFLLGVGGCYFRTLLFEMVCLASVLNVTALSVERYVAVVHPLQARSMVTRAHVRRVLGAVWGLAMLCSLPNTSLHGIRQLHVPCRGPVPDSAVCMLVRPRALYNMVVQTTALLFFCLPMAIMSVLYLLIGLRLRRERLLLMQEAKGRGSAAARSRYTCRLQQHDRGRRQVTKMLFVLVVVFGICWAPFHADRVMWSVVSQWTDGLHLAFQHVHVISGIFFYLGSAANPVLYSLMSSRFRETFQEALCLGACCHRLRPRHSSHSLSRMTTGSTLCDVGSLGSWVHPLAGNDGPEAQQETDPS
Description: (§1) Example 3: IP1 Gq HTRF Assay Activation of Human NMUR2 or Human NMUR1 in Buffer Application of the Homogenous Time Resolved Fluorescence (HTRF) technology optimized for Gq coupled receptors has been described in detail in the Cisbio IP-One Gq kit manual. In brief, a FRET signal (FRET: fluorescence resonance energy transfer) is generated between the donor label of an IP-One antibody (anti-IP1-Tb) and the acceptor label of a tagged IP-One (IP1-d2). Agonism of a Gq coupled receptor increases intracellular IP-One, which competes with labeled IP-One and leads to a reduction of the FRET signal. Frozen stocks of CHO-K1 cells stably expressing the human NMUR1 or NMUR2 receptor were thawed and 5000 cells were seeded in culture medium (HAM'S F12, 10% FCS) into each well of a 384-well assay plate. After seeding, cells were incubated for 24 h in a humidified incubator at 37° C. and 5% CO2. Next, cells were washed once with 50 μL of wash buffer (20 mM Hepes, 1×HBSS, pH 7.4), followed by addition of either 10 μL of stimulation buffer (20 mM Hepes, 1×HBSS, 50 mM LiCl, 0.1% BSA, pH 7.4). Peptide agonists to be tested were dissolved in 100% DMSO and pre-diluted in stimulation buffer at a suitable concentration range for an 8 pt dose-response curve. 5 μL of peptide pre-dilution were then added to each well, followed by another 5 μL of stimulation buffer to give a final concentration of 1% DMSO. Samples were subsequently incubated for 1 hour in a humidified incubator at 37° C. After addition of 5 μL each of IP1-d2 and anti-IP1-Tb, samples were incubated for another 1 hour at room temperature and FRET signals (ratio 665 nm/620 nm) were measured. EC50 values were calculated by nonlinear regression using a 4-parameter sigmoidal curve fit.

human NMUR2 receptor [1] = biological target: T2, human NMUR2 receptor (Homo sapiens, UniProt Q9GZQ4); assay: IP1 Gq HTRF assay, activation of human NMUR2 in buffer; set-up: expressed in transfected cells; host or cells: CHO-K1; settings: CHO-K1 cells expressing human NMUR2, stimulation buffer with 0.1% BSA; read-out: EC50 (hNMUR2) buffer
Description: as §1

human NMUR2 receptor [2] = biological target: T2, human NMUR2 receptor; assay: IP1 Gq HTRF assay, activation of human NMUR2 in human plasma; set-up: expressed in transfected cells; host or cells: CHO-K1; settings: CHO-K1 cells expressing human NMUR2, 100% human plasma; read-out: EC50 (hNMUR2) human plasma
Description: Example 4: IP1 Gq HTRF Assay Activation of Human NMUR2 in Human Plasma Application of the Homogenous Time Resolved Fluorescence (HTRF) technology optimized for Gq coupled receptors has been described in detail in the Cisbio IP-One Gq kit manual. In brief, a FRET signal is generated between the donor label of an IP-One antibody (anti-IP1-Tb) and the acceptor label of a tagged IP-One (IP1-d2). Agonism of a Gq coupled receptor increases intracellular IP-One, which competes with labeled IP-One and leads to a reduction of the FRET signal. Frozen stocks of CHO-K1 cells stably expressing the human NMUR1 receptor or human NMUR2 receptor were thawed and 5000 cells were seeded in culture medium (HAM'S F12, 10% FCS) into each well of a 384-well assay plate. After seeding, cells were incubated for 24 h in a humidified incubator at 37° C. and 5% CO2. Next, cells were washed once with […] of wash buffer (20 mM Hepes, 1×HBSS, pH 7.4), followed by addition of […] (100% human plasma, 50 mM LiCl). Peptide agonists to be tested were dissolved in 100% DMSO and pre-diluted in plasma at a suitable concentration range for an 8 pt dose-response curve. 5 μL of peptide pre-dilution were then added to each well, followed by another 5 μL of plasma to give a final concentration of 1% DMSO. Samples were subsequently incubated for 1 hour in a humidified incubator at 37° C. The plasma solution was replaced by 20 μL of stimulation buffer. After addition of 5 μL each of IP1-d2 and anti-IP1-Tb, samples were incubated for another 1 hour at room temperature and FRET signals (ratio 665 nm/620 nm) were measured. EC50 values were calculated by nonlinear regression using a 4-parameter sigmoidal curve fit.

T2 sequence (Q9GZQ4 whole entry): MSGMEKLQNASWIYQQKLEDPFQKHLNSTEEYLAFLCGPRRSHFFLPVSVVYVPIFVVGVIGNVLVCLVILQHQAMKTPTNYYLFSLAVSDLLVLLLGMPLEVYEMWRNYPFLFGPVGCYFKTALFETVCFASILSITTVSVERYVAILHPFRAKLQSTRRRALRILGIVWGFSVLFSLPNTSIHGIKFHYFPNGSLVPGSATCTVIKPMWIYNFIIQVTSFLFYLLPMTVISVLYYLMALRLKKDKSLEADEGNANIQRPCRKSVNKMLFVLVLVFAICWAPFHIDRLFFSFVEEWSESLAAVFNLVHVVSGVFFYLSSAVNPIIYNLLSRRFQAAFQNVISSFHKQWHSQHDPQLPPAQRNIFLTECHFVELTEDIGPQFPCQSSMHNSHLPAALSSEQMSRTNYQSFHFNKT

Row | Compound | pEC50 (human NMUR1 receptor) | pEC50 (human NMUR2 receptor [1]) | pEC50 (human NMUR2 receptor [2])
1 | CCCC[C@H](NC(=O)[C@H](CC(C)C)N(C)C(=O)[C@H](Cc1ccccc1)NC(=O)[C@H](Cc1ccc(O)cc1)NC(=O)CN1CCN(CCNC(=O)CN(C)C(=O)CN(C)C(=O)CN(C)C(=O)CN(C)C(=O)CN(C)C(=O)CN(C)C(=O)CN(C)C(=O)CN(C)C(=O)CN(C)C(=O)CN(C)C(=O)CN(C)C(=O)CN(C)C(=O)CC[C@H](NC(=O)CC[C@H](NC(=O)CC[C@H](NC(=O)CC[C@H](NC(=O)CCCCCCCCCCCCCCCCC(=O)O)C(=O)O)C(=O)O)C(=O)O)C(=O)O)CC1)C(=O)N[C@@H](CCCNC(=N)N)C(=O)N1CCC[C@H]1C(=O)N[C@@H](CCCNC(=N)N)C(=O)NCC(N)=O [Compound 2, C18DA-gGlu4-Sar12-AEPipAc-Tyr-Phe-NMeLeu-Nle-Arg-Pro-Arg-Gly-NH2] | 6.66 | 8.96 | 8.43
2 | CCCC[C@H](NC(=O)[C@H](CC(C)C)N(C)C(=O)[C@H](Cc1ccccc1)NC(=O)[C@H](Cc1ccc(O)cc1)NC(=O)CN1CCN(CCNC(=O)CN(C)C(=O)CN(C)C(=O)CN(C)C(=O)CN(C)C(=O)CN(C)C(=O)CN(C)C(=O)CN(C)C(=O)CN(C)C(=O)CN(C)C(=O)CN(C)C(=O)CN(C)C(=O)CN(C)C(=O)CN(C)C(=O)CN(C)C(=O)CN(C)C(=O)CC[C@H](NC(=O)CC[C@H](NC(=O)CC[C@H](NC(=O)CC[C@H](NC(=O)CCCCCCCCCCCCCCCCCCC(=O)O)C(=O)O)C(=O)O)C(=O)O)C(=O)O)CC1)C(=O)N[C@@H](CCCN)C(=O)N1CCC[C@H]1C(=O)N[C@@H](CCCNC(=N)N)C(=O)NCC(N)=O [Compound 3, C20DA-gGlu4-Sar15-AEPipAc-Tyr-Phe-NMeLeu-Nle-Orn-Pro-Arg-Gly-NH2] (HELM PEPTIDE1{[O=C(O)CCCCCCCCCCCCCCCCCCC(=O)[*:2]].[gGlu].[gGlu].[gGlu].[gGlu].[Sar].[Sar].[Sar].[Sar].[Sar].[Sar].[Sar].[Sar].[Sar].[Sar].[Sar].[Sar].[Sar].[Sar].[Sar].[O=C(CN1CCN(CCN[*:1])CC1)[*:2]].Y.F.[meL].[Nle].[Orn].P.R.G.[am]}$$$$V2.0) | 6.36 | 8.72 | 8.25
3 | CCCC[C@H](NC(=O)[C@H](CC(C)C)N(C)C(=O)[C@H](Cc1ccccc1)NC(=O)[C@H](Cc1ccc(O)cc1)NC(=O)CN1CCN(CCNC(=O)CN(C)C(=O)CN(C)C(=O)CN(C)C(=O)CN(C)C(=O)CN(C)C(=O)CN(C)C(=O)CN(C)C(=O)CN(C)C(=O)CN(C)C(=O)CN(C)C(=O)CN(C)C(=O)CN(C)C(=O)CN(C)C(=O)CN(C)C(=O)CN(C)C(=O)CC[C@H](NC(=O)CC[C@H](NC(=O)CC[C@H](NC(=O)CC[C@H](NC(=O)CCCCCCCCCCCCCCCCCCC(=O)O)C(=O)O)C(=O)O)C(=O)O)C(=O)O)CC1)C(=O)N[C@@H](CCN)C(=O)N1CCC[C@H]1C(=O)N[C@@H](CCCNC(=N)N)C(=O)NCC(N)=O [Compound 4, C20DA-gGlu4-Sar15-AEPipAc-Tyr-Phe-NMeLeu-Nle-Dbu-Pro-Arg-Gly-NH2] (HELM PEPTIDE1{[O=C(O)CCCCCCCCCCCCCCCCCCC(=O)[*:2]].[gGlu].[gGlu].[gGlu].[gGlu].[Sar].[Sar].[Sar].[Sar].[Sar].[Sar].[Sar].[Sar].[Sar].[Sar].[Sar].[Sar].[Sar].[Sar].[Sar].[O=C(CN1CCN(CCN[*:1])CC1)[*:2]].Y.F.[meL].[Nle].[Dab].P.R.G.[am]}$$$$V2.0) | 6.11 | 8.70 | 8.24
4 | CCCC[C@H](NC(=O)[C@H](CC(C)C)N(C)C(=O)[C@H](Cc1ccccc1)NC(=O)[C@H](Cc1ccc(O)cc1)NC(=O)CN1CCN(CCNC(=O)CN(C)C(=O)CN(C)C(=O)CN(C)C(=O)CN(C)C(=O)CN(C)C(=O)CN(C)C(=O)CN(C)C(=O)CN(C)C(=O)CN(C)C(=O)CN(C)C(=O)CN(C)C(=O)CN(C)C(=O)CC[C@H](NC(=O)CC[C@H](NC(=O)CC[C@H](NC(=O)CC[C@H](NC(=O)CCCCCCCCCCCCCCCCCCC(=O)O)C(=O)O)C(=O)O)C(=O)O)C(=O)O)CC1)C(=O)N[C@@H](CCCN)C(=O)N(C)[C@@H](C)C(=O)N[C@@H](CCCNC(=N)N)C(=O)NCC(N)=O [Compound 13, C20DA-gGlu4-Sar12-AEPipAc-Tyr-Phe-NMeLeu-Nle-Orn-NMeAla-Arg-Gly-NH2] | 5.92 | 8.46 | 7.99
5 | CCCC[C@H](NC(=O)[C@H](CC(C)C)N(C)C(=O)[C@H](Cc1ccccc1)NC(=O)[C@H](Cc1ccc(O)cc1)NC(=O)CN1CCN(C(=O)CN(C)C(=O)CN(C)C(=O)CN(C)C(=O)CN(C)C(=O)CN(C)C(=O)CN(C)C(=O)CN(C)C(=O)CN(C)C(=O)CN(C)C(=O)CN(C)C(=O)CN(C)C(=O)CN(C)C(=O)CC[C@H](NC(=O)CC[C@H](NC(=O)CC[C@H](NC(=O)CCCCCCCCCCCCCCCCCCC(=O)O)C(=O)O)C(=O)O)C(=O)O)CC1)C(=O)N[C@@H](CCCNC(=N)N)C(=O)N1CCC[C@H]1C(=O)N[C@@H](CCCNC(=N)N)C(=O)NCC(N)=O [Compound 78, C20DA-gGlu3-Sar12-PipAc-Tyr-Phe-NMeLeu-Nle-Arg-Pro-Arg-Gly-NH2] |  | 8.92 | 8.28
6 | CCCC[C@H](NC(=O)[C@H](CC(C)C)N(C)C(=O)[C@H](Cc1ccccc1)NC(=O)[C@H](Cc1ccc(O)cc1)NC(=O)CN1CCN(C(=O)CN(C)C(=O)CN(C)C(=O)CN(C)C(=O)CN(C)C(=O)CN(C)C(=O)CN(C)C(=O)CN(C)C(=O)CN(C)C(=O)CN(C)C(=O)CN(C)C(=O)CN(C)C(=O)CN(C)C(=O)CN(C)C(=O)CN(C)C(=O)CN(C)C(=O)CC[C@H](NC(=O)CC[C@H](NC(=O)CC[C@H](NC(=O)CCCCCCCCCCCCCCCCCCC(=O)O)C(=O)O)C(=O)O)C(=O)O)CC1)C(=O)N[C@@H](CCCN)C(=O)N1CCC[C@H]1C(=O)N[C@@H](CCCNC(=N)N)C(=O)NCC(N)=O [Compound 80, C20DA-gGlu3-Sar15-PipAc-Tyr-Phe-NMeLeu-Nle-Orn-Pro-Arg-Gly-NH2] (HELM PEPTIDE1{[O=C(O)CCCCCCCCCCCCCCCCCCC(=O)[*:2]].[gGlu].[gGlu].[gGlu].[Sar].[Sar].[Sar].[Sar].[Sar].[Sar].[Sar].[Sar].[Sar].[Sar].[Sar].[Sar].[Sar].[Sar].[Sar].[O=C(CN1CCN([*:1])CC1)[*:2]].Y.F.[meL].[Nle].[Orn].P.R.G.[am]}$$$$V2.0) |  | 8.72 | 8.15
